Measurements published in the Biogen ADME set (Fang et al. 2023).
In brackets after ≈: the same amount, converted by molar mass.

Conditions: for aqueous solubility: pH 6.8

Structure (SMILES) | intrinsic clearance, human liver microsomes [mL/min/kg] | intrinsic clearance, rat liver microsomes [mL/min/kg] | aqueous solubility [µg/mL] | MDR1-MDCK efflux ratio | fraction unbound, human plasma | fraction unbound, rat plasma
Cc1nsc(Nc2ccccc2)c1C#N | 300 | 782 | – | 0.367 | – | –
COc1cc2c(cc1OC)[C@@H]1CC(=O)[C@@H](CC(C)C)CN1CC2 | 57.8 | 330 | – | 0.721 | – | –
CCOC(=S)SCC(=O)Nc1nc(-c2ccc(C3CCCCC3)cc2)cs1 | 267 | 1390 | 2.18 (≈ 5.18 µM) | 0.229 | – | –
CCCCNC(=O)c1ccc2c(c1)nnn2C | ≤ 4.74 | ≤ 10.7 | 26 (≈ 112 µM) | – | – | –
CSc1ncccc1C(=O)Nc1ccc(N2CCCCC2=O)cc1 | ≤ 4.74 | 17.8 | 8.97 (≈ 26.3 µM) | 8.14 | – | –
Cc1ccc(CCNC(=O)N2CC(C)(C)OC(C)(C)C2)cn1 | 6.58 | 76.4 | 41.1 (≈ 135 µM) | 22.9 | – | –
CC(C)C[C@H](C(=O)N[C@H](C(=O)OC1CCCC1)c1ccccc1)[C@@H](O)C(=O)NO | 55.3 | 598 | – | – | – | –
COCC(=O)Nc1ccc(NC(=O)Cc2ccc(C(F)(F)F)cc2)cc1 | 32.8 | 88.9 | – | 1.08 | – | –
CNc1cc(C)nc(-c2ccnc3c2ccn3C)n1 | 85.7 | 82.2 | 29.2 (≈ 115 µM) | – | – | –
CC(C)(C)NC(=O)c1cnc(-c2ccc(Cl)s2)s1 | 41.6 | 167 | 1.1 (≈ 3.66 µM) | 0.494 | – | –
CN(C)CC(C)(C)CNc1cn[nH]c(=O)c1Br | 8.54 | 43.9 | – | 0.676 | – | –
Cc1cc(CNC(=O)N(C)Cc2c(C)nn(C)c2C)cnc1C | ≤ 4.74 | 112 | – | 94.1 | – | –
CN(CC(=O)Nc1cc(F)cc(F)c1)c1ccnc(C(N)=O)c1 | ≤ 4.74 | 42.6 | 45.9 (≈ 143 µM) | 12.3 | – | –
COCc1ccccc1CNc1ccc2nnc(-c3ccccc3)n2n1 | 101 | 417 | 2.8 (≈ 8.11 µM) | 9.33 | – | –
CNC(=O)c1ccc(N2CCCC2)nc1 | 44.7 | 58.1 | 34.7 (≈ 169 µM) | 0.58 | – | –
N#CC[C@H](C1CCCC1)n1cc(-c2ncnc3[nH]ccc23)cn1 | – | 405 | 34.5 (≈ 113 µM) | 10.9 | 0.0428 | 0.176
Cc1cc(C)n(-c2ccc(CNC(=O)C3CCC3)cn2)n1 | 9.73 | 571 | 39.7 (≈ 140 µM) | 1.08 | – | –

Structure (SMILES) | intrinsic clearance, human liver microsomes [mL/min/kg] | intrinsic clearance, rat liver microsomes [mL/min/kg] | aqueous solubility [µg/mL] | MDR1-MDCK efflux ratio | fraction unbound, human plasma | fraction unbound, rat plasma
CC(C)(C)N1CCCN(C(=O)CNc2ccc(C#N)cc2)CC1 | ≤ 4.74 | 65.3 | 50 (≈ 159 µM) | 0.887 | – | –
CN(C)C(=O)COc1ccc(N)c(F)c1 | ≤ 4.74 | ≤ 10.7 | 43.8 (≈ 206 µM) | 0.766 | – | –
CSCC(=O)N1CCc2[nH]nc(-c3cccc(F)c3)c2C1 | 57 | 960 | 49.5 (≈ 162 µM) | – | – | –
Cc1ccc(C#N)c(NC(=O)CCc2ccccc2)n1 | 11.1 | 240 | – | – | – | –
Cc1cc(OCc2ccnc(Cl)c2)nnc1C | ≤ 4.74 | 51.6 | – | – | – | –
Fc1cccc(Cl)c1CNCCc1c[nH]c2ccccc12 | 298 | 2150 | 48.3 (≈ 159 µM) | 0.457 | – | –
C=CCNC1=C2C[C@@H](C)C[C@@H](OC)[C@@H](O)[C@@H](C)/C=C(\C)[C@@H](OC(N)=O)[C@@H](OC)/C=C\C=C(/C)C(=O)NC(=CC1=O)C2=O | 489 | 1010 | – | – | – | –
Cc1cc2ccccc2n1CC(=O)N(C)Cc1cnn(C)c1 | – | – | 47.5 (≈ 160 µM) | 2.14 | – | –
Cc1ccc(C(=O)NC[C@H]2Cn3ccnc3CO2)cc1 | ≤ 4.74 | ≤ 10.7 | 30.4 (≈ 112 µM) | 7.94 | – | –
COc1ccc(/C=C/C(=O)c2c(C)nc3ccccc3c2N)cc1 | 182 | 1190 | 39.6 (≈ 124 µM) | 0.197 | – | –
Cc1cccc(NC2CCN(Cc3ccncc3)CC2)n1 | 18.6 | 238 | 37.6 (≈ 133 µM) | 0.496 | – | –
Cc1nccc(-c2cccc(-n3ccnc3C(C)C)c2)n1 | 35.4 | 500 | 40.4 (≈ 145 µM) | 1.45 | – | –
OC1CCN(c2ncc(-c3cnccn3)c(-c3cccs3)n2)CC1 | 7.01 | ≤ 10.7 | 47.9 (≈ 141 µM) | 1.14 | – | –
CCC(Oc1ccccc1)C(=O)Nc1nc2ccccc2[nH]1 (configuration not stated) | – | – | 11.8 (≈ 40.1 µM) | – | – | –
O=C(Nc1ccncc1)[C@H]1CCCN(S(=O)(=O)c2ccc(Cl)cc2)C1 | 22.2 | 721 | – | 20 | – | –
O=c1c2ccccc2cnn1Cc1cccc(OCC(F)(F)F)c1 | ≤ 4.74 | 51.3 | – | 35.9 | – | –

Further lines, results first:

intrinsic clearance, human liver microsomes [mL/min/kg] | intrinsic clearance, rat liver microsomes [mL/min/kg] | aqueous solubility [µg/mL] | MDR1-MDCK efflux ratio | fraction unbound, human plasma | fraction unbound, rat plasma | Structure (SMILES)
57.4 | 940 | 3.01 (≈ 8.42 µM) | – | – | – | COc1cc(-c2ccc(C)s2)cc2c1OCCN(c1noc(C)n1)C2
8.19 | 88.1 | 32.5 (≈ 81.7 µM) | 4.55 | – | – | CC(C)(C)n1ncc(OCc2ccc(OCCOCCO)nc2)c(Cl)c1=O
– | – | – | 35.5 | 0.0253 | 0.0205 | N#Cc1ccc(COc2cccc(C3CCN(Cc4nc5ccc(C(=O)O)cc5n4C[C@@H]4CCO4)CC3)n2)c(F)c1
7.54 | ≤ 10.7 | 56.7 (≈ 215 µM) | 2.62 | – | – | CC(=O)Nc1cccc(OC(=O)N2CCOCC2)c1
≤ 4.74 | ≤ 10.7 | – | 0.663 | – | – | CN(Cc1ccc(C(=O)O)cc1)C(=O)c1ccnn1C
34.9 | 446 | 41 (≈ 154 µM) | – | – | – | CCONC(=O)c1cnn(-c2cccc(Cl)c2)c1
8.04 | 96.9 | – | 37.8 | – | – | CC(=O)N1CCN([C@H]2CCN(C(=O)c3cc4cc(Cl)ccc4o3)CC[C@@H]2O)CC1
41.3 | 84.6 | 27.6 (≈ 49.8 µM) | 54.7 | – | – | Cc1cnc(Cl)nc1-c1ccc(N(Cc2ccc(CNC(=O)C(F)F)cc2)C(=O)c2ccc(O)cc2O)cc1
131 | 504 | 53.4 (≈ 143 µM) | – | – | – | COc1cc2c(cc1OC)CN(CN1C(=O)c3cccc4cccc1c34)CC2
– | – | 0.5 (≈ 1.47 µM) | – | – | – | CCn1c(=O)c2c(nc3n2CCN3c2cc(C)cc(C)c2)n(C)c1=O
≤ 4.74 | ≤ 10.7 | 34.9 (≈ 158 µM) | 0.864 | – | – | CCN(C(C)=O)c1ccc(C)cc1C(=O)O
48.5 | 319 | – | 0.551 | – | – | OCCOc1ccccc1OCc1ncc(Cl)cc1Cl
162 | 250 | 53.4 (≈ 95.9 µM) | 91.5 | – | – | COc1cc(C(C)C)c2c(c1)S(=O)(=O)N(COc1cc(=O)n3cccc(OCCN4CCCCC4)c3n1)C2=O
34.3 | 114 | 36.2 (≈ 151 µM) | 0.704 | – | – | CCOC(=O)CNC(=O)c1ccc(O)cc1O
9.2 | 68.6 | – | 1.35 | – | – | CCC(=O)Nc1ccc(F)c(NC(=O)N2CC=C(C)CC2)c1
8.05 | 1030 | 34.1 (≈ 96.4 µM) | 1.51 | – | – | COCCc1nc(-c2cnc(C3CC3)nc2)n(Cc2ccc(F)cc2)n1
177 | 212 | – | – | – | – | CN1CCN(c2ccc3nc(-c4cc(C(C)(C)C)c(OCCCC(=O)NCCCN=[N+]=[N-])c(C(C)(C)C)c4)[nH]c3c2)CC1
10.5 | 70.6 | 36.2 (≈ 107 µM) | 9.53 | 0.0736 | 0.0485 | COc1nn(C)cc1C(=O)Nc1cccc(-c2cnc3n2CCC3)c1
8.94 | 226 | 34 (≈ 95.4 µM) | – | – | – | Cn1cc(-c2nc(C(=O)Nc3ccc4c(c3)OCCCO4)cs2)cn1
≤ 4.74 | 18.1 | – | 0.841 | – | – | CCCc1noc2nc(-c3ccncc3)cc(C(=O)O)c12
46.4 | 330 | 53.5 (≈ 137 µM) | 1.94 | – | – | COc1cc(CNCCN2CCOCC2)cc(Cl)c1OCc1ccccc1
28.1 | 209 | – | 7.53 | – | – | CCc1c(O)cc(O)c(C(=O)c2ccc(OCCN3CCOCC3)c(OC)c2)c1CC(=O)N(CCOC)CCOC
≤ 4.74 | 29.8 | – | 0.732 | – | – | c1cc(-c2noc(CN3CCOCC3)n2)ccn1
